Source: publication PMC8946265, “Withanolide-Type Steroids from Physalis nicandroides Inhibit HIV Transcription” (Journal of Natural Products, 2021)
Like-named read-outs stand apart in the source and are kept apart here.

Tests used:
in vitro = details: human
[1] = tested on: X4 recombinant HIV (NL4.3-Ren); assay: microbe, parasite or virus in culture
[2] = tested on: X4 recombinant HIV (NL4.3-Ren); details: for SI: selectivity index (CC50/IC50): CC50 MT-2 / IC50 HIV NL4.3-Ren
[3] = tested on: VSV pseudotyped HIV (VSV-HIV)
[4] = tested on: HIV transcription (pNL4.3-Luc); assay: cells; format: cell-based, HIV-1; details: for IC50: Human immunodeficiency virus 1, MT2, 48 h, read-out: IC50 viral transcription; for SI HIV transcription/HIV infection (specificity index): IC50 transcription / IC50 HIV infection; for effect on HIV transcription (in words): MT-2 cells transfected with NL4.3-Luc, 0.7 to 100 μM
[5] = tested on: VSV pseudotyped HIV (VSV-HIV); assay: microbe, parasite or virus in culture; details: Vesicular stomatitis virus, MT2, 48 h, read-out: IC50 VSV-HIV
[6] = Human immunodeficiency virus 1, MT2, 48 h, read-out: IC50 (CI95%; R^2) anti-HIV activity, MT-2 cells, NL4.3-Ren, 48 h, mean of at least three independent experiments
[7] = Human immunodeficiency virus 1, MT2, read-out: IC50 HIV, MT-2 cells, HIV infection, values repeated from Table 3 (more decimals)

Compound | CC50 (in vitro) | IC50 [1, 6] | SI: selectivity index (CC50/IC50) [2] | other results
CC(=O)O[C@H]1C[C@@](O)([C@H](C)[C@H]2CC(C)=C(C)C(=O)O2)[C@@]2(C)CC[C@H]3[C@@H](C[C@H]4O[C@]45CC=CC(=O)[C@]35C)[C@@]12O [Compound 5, physagulide I] | > 100 µM | > 100 µM |  | 
C=C1C(=O)O[C@@H]([C@@H](C)[C@]2(O)C[C@H](OC(C)=O)[C@]3(O)[C@@H]4C[C@H]5O[C@]56CC=CC(=O)[C@]6(C)[C@H]4CC[C@@]32C)C[C@]1(C)O [Compound 2, 15α-acetoxy-5β,6β-epoxy-14β,17β,24α-trihydroxy-1-oxo-witha-2,25(27)-dien-26,22-olide] | > 100 µM | 18.7 µM | >5.3 | 
CC(=O)O[C@H]1C[C@H]([C@H](C)[C@H]2CC(C)=C(C)C(=O)O2)[C@@]2(C)CC[C@H]3[C@@H](C[C@@H](O)[C@@]4(O)CC=CC(=O)[C@]34C)[C@@]12O [Compound 10, physagulin J] | > 100 µM | 32.7 µM | >3.1 | 
CC(=O)O[C@H]1C=C([C@H](C)[C@H]2CC(C)=C(C)C(=O)O2)[C@@]2(C)CC[C@H]3[C@@H](C[C@@H](O)[C@]45C=C[C@H](OO4)C(=O)[C@]35C)[C@@]12O [Compound 3, 15α-acetoxy-6β,14β-dihydroxy-1-oxo-2α,5α-dioxy-witha-3,16,24-trien-26,22-olide] | > 100 µM | 76.1 µM | >1.3 | 
enfuvirtide |  |  |  | IC50 ([2]; read-out: IC50 HIV, MT-2 cells, HIV infection, values repeated from Table 3 (more decimals)): 0.015 µM; activity as VSV-HIV inhibitor (in words) [3]: not active; IC50 ([3]; VSV pseudotyped (VSV-, 48 h)): > 1 µM; SI VSV-HIV/HIV (specificity index) ([3]; VSV pseudotyped (VSV-, 48 h)): >66.67
CC(=O)O[C@H]1[C@@H]2O[C@]2([C@H](C)[C@H]2CC(C)=C(C)C(=O)O2)[C@@]2(C)CC[C@H]3[C@@H](C[C@@H](O)[C@]45C=C[C@H](OO4)C(=O)[C@]35C)[C@@]12O [Compound 4, 15α-acetoxy-16β,17β-epoxy-6β,14β-dihydroxy-1-oxo-2α,5α-dioxy-witha-3,24-dien-26,22-olide] | > 100 µM | 72.7 µM | >1.4 | 
CC(=O)O[C@H]1C=C([C@H](C)[C@H]2CC(C)=C(C)C(=O)O2)[C@@]2(C)CC[C@H]3[C@@H](C[C@H]4O[C@]45CC=CC(=O)[C@]35C)[C@@]12O [Compound 7, physagulin A] | 16 µM | < 2 µM |  | IC50 [4]: 1.97 µM; SI HIV transcription/HIV infection (specificity index) [4]: 1.02; effect on HIV transcription (in words) [4]: inhibited HIV transcription; fold more potent (antiviral effect) than 17β-hydroxy-withanolide 5 ([2]; IC50 ratio versus compound 5): > 50 fold; fold more potency (anti-HIV) than dihydroxy compound 8 ([2]; IC50 ratio versus compound 8): 35.7 fold; fold more potency (anti-HIV) than halohydrin 9 ([2]; IC50 ratio versus compound 9): 4.7 fold; IC50 [5]: 3.2 µM; IC50 [1, 7]: 1.94 µM; SI VSV-HIV/HIV (specificity index) [3]: 1.64
CC(=O)O[C@H]1[C@@H]2O[C@]2([C@H](C)[C@H]2CC(C)=C(C)C(=O)O2)[C@@]2(C)CC[C@H]3[C@@H](C[C@@H](O)[C@@]4(O)CC=CC(=O)[C@]34C)[C@@]12O [Compound 12, physagulin C] | > 100 µM | 21.1 µM | >4.7 | 
CC(=O)O[C@H]1C=C([C@H](C)[C@H]2CC(C)=C(C)C(=O)O2)[C@@]2(C)CC[C@H]3[C@@H](C[C@@H](O)[C@@]4(Cl)CC=CC(=O)[C@]34C)[C@]12O [Compound 9, physagulin B] | > 100 µM | 8.9 µM | >11.2 | 
CC(=O)O[C@H]1[C@@H]2O[C@]2([C@H](C)[C@H]2CC(C)=C(C)C(=O)O2)[C@@]2(C)CC[C@H]3[C@@H](C[C@H]4O[C@]45[C@@H](O)C=CC(=O)[C@]35C)[C@@]12O [Compound 13, physagulin F] | 15.2 µM | < 2 µM | 15.5 | IC50 [4]: 1.14 µM; SI HIV transcription/HIV infection (specificity index) [4]: 1.13; effect on HIV transcription (in words) [4]: inhibited HIV transcription; IC50 [5]: 2.67 µM; IC50 [1, 7]: 1.01 µM; SI VSV-HIV/HIV (specificity index) [3]: 2.66
CC(=O)O[C@H]1C=C([C@H](C)[C@H]2CC(C)=C(C)C(=O)O2)[C@@]2(C)CC[C@H]3[C@@H](C[C@@H](O)[C@@]4(O)CC=CC(=O)[C@]34C)[C@]12O [Compound 8, withaminimin] | > 100 µM | 67.9 µM | >1.5 | 
C[C@H](Cn1cnc2c(N)ncnc21)OCP(=O)(O)O [TFV, tenofovir, reference compound] | > 100 µM | 1.7 µM |  | IC50 [1, 7]: 1.69 µM
C=C1C(=O)O[C@@H]([C@@H](C)[C@]2(O)C[C@H](OC(C)=O)[C@]3(O)[C@@H]4C[C@H]5O[C@]56CC=CC(=O)[C@]6(C)[C@H]4CC[C@@]32C)C[C@@]1(C)O [Compound 1, 15α-acetoxy-5β,6β-epoxy-14β,17β,24β-trihydroxy-1-oxo-witha-2,25(27)-dien-26,22-olide] | > 100 µM | 12.4 µM | >8 | 
